Source: ChEMBL document CHEMBL1122577, “Cardiac glycosides. 1. A systematic study of digitoxigenin D-glycosides” (J Med Chem, 1984)

Assay: Inhibitory activity against Hog kidney Na+, K+ -Dependent ATPase
Set-up: species or system Sus scrofa
Details: read-out: I50
`C[C@]12CC[C@H](O[C@@H]3O[C@@H](CO)[C@@H](O)[C@H](O)[C@@H]3O)CC1CC[C@@H]1[C@@H]2CC[C@]2(C)[C@@H](C3=CC(=O)OC3)CC[C@@]12O` (stereo partly drawn) gave an IC50 of 11.7 nM. `C[C@]12CC[C@H](O[C@@H]3O[C@@H](CO)[C@H](O)[C@H](O)[C@@H]3O)CC1CC[C@@H]1[C@@H]2CC[C@]2(C)[C@@H](C3=CC(=O)OC3)CC[C@@]12O` (stereo partly drawn) gave an IC50 of 64.5 nM. In the case of `C[C@]12CC[C@H](O[C@@H]3C[C@@H](O)[C@H](O)[C@H](CO)O3)C[C@@H]1CC[C@@H]1[C@@H]2CC[C@]2(C)[C@@H](C3=CC(=O)OC3)CC[C@@]12O`, the IC50 is reported as 28.2 nM. In the case of `C[C@]12CC[C@H](O)C[C@H]1CC[C@@H]1[C@@H]2CC[C@]2(C)[C@@H](C3=CC(=O)OC3)CC[C@]12O` [DIGITOXIGENIN], the IC50 is reported as 117 nM. For `C[C@@H]1O[C@@H](O[C@H]2CC[C@@]3(C)[C@@H](CC[C@@H]4[C@@H]3CC[C@]3(C)[C@@H](C5=CC(=O)OC5)CC[C@@]43O)C2)C[C@H](O)[C@@H]1O`, the IC50 was 7.04 nM. In the case of `C[C@]12CC[C@H](O[C@H]3C[C@H](O)[C@H](O)[C@H](CO)O3)C[C@@H]1CC[C@@H]1[C@@H]2CC[C@]2(C)[C@@H](C3=CC(=O)OC3)CC[C@@]12O`, the IC50 is reported as 10.7 nM. In the case of `C[C@@H]1O[C@@H](O[C@H]2CC[C@@]3(C)[C@@H](CC[C@@H]4[C@@H]3CC[C@]3(C)[C@@H](C5=CC(=O)OC5)CC[C@@]43O)C2)C[C@@H]2OC(C)(C)O[C@H]12`, the IC50 is reported as 41.8 nM. `C[C@]12CC[C@H](O[C@@H]3C[C@H](O)[C@H](O)[C@H](CO)O3)C[C@@H]1CC[C@@H]1[C@@H]2CC[C@]2(C)[C@@H](C3=CC(=O)OC3)CC[C@@]12O` gave an IC50 of 93.3 nM.
